Values quoted from earlier work, collected in patent US9400249B2, “Detection of biopolymer interactions, cancer cells, and pathogens using split-supercharged GFP” (Colorado State University Research Foundation, priority 2012, dated 2016).

Experiments:
Hepatocellular carcinoma = details: Targeted cell type: Hepatocellular carcinoma; read-out: Approximate affinity (Kd in nM)
Osteosarcoma = details: Targeted cell type: Osteosarcoma; read-out: Approximate affinity (Kd in nM)
[1] = tested on: PC-3 prostate cancer cells; details: previously reported
Cholangiocarcinoma = details: Targeted cell type: Cholangiocarcinoma; read-out: Approximate affinity (Kd in nM)
Head and neck cancer = details: Targeted cell type: Head and neck cancer; read-out: Approximate affinity (Kd in nM)
[2] = target: Breast cancer, Neuroblastoma; details: Targeted cell type: Breast cancer, read-out: Approximate affinity (Kd in nM)

In the case of “AGKGTPSLETTP [cell targeting peptide, targeted cell type hepatocellular carcinoma]”, the Kd (Hepatocellular carcinoma) is listed as about 50 nM.

For “ASGALSPSRLDT [cell targeting peptide, targeted cell type osteosarcoma]”, the Kd (Osteosarcoma) is listed as about 2000 nM.

In the case of FRPNRAQDYNTN, the “binding to PC-3 prostate cancer cells” value (Prostate cancer; PC-3 prostate cancer cells, previously reported) is given as “potently binds”, the Kd (Prostate cancer; Targeted cell type: Prostate cancer, read-out: Approximate affinity (Kd in nM)) is given as about 180 nM and the “penetration of PC-3 prostate cancer cells” value [1] is given as “does not appreciably penetrate”.

For “TPVLETPKLLLW [cell targeting peptide, targeted cell type cholangiocarcinoma]”, the Kd (Cholangiocarcinoma) is listed as about 500 nM.

In the case of “TSPLNIHNGQKL [cell targeting peptide, targeted cell type head and neck cancer]”, the Kd (Head and neck cancer) is given as about 1000 nM.

For “VPWMEPAYQRFL [cell targeting peptide, targeted cell type breast cancer, neuroblastoma]”, the Kd [2] is given as 50000 to 80000 nM.
